Where two headings read alike, the source gives them in different places.
Assays:
[1] = biological target: T1, STING AQ: His-TVMV-S-hSTING(155-341)-G230A-R293Q (Homo sapiens, UniProt Q86WV6, G230A/H232R/R293Q); assay: STING HTRF binding assay (time resolved FRET competition), STING AQ; details: 20 nM His-tagged STING AQ cytoplasmic domain, 40 nM fluorescein-labeled cGAMP analog probe, one hour; read-out: HTRF Binding Assays IC50 (μM) AQ
T1 construct: STING AQ: His-TVMV-S-hSTING(155-341)-G230A-R293Q
T1 sequence (Q86WV6 with tags, fused parts or gaps G230A/H232R/R293Q): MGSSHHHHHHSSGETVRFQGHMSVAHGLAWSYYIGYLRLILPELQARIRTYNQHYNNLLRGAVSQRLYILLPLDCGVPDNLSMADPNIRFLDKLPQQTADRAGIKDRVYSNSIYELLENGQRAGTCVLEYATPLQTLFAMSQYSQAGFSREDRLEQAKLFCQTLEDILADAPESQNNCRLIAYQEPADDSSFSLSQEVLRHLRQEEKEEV
Method: (§1) A time resolved FRET-based competition binding assay was used to assess test article binding to STING WT and STING AQ. His-tagged STING cytoplasmic domain (WT or AQ) at a concentration of 20 nM was incubated with 2.5 nM Tb-labeled anti-His antibody, test compound, and fluorescein-labeled cGAMP analog probe (BioLog cat. no. C195) at a concentration of 200 nM (STING WT) or 40 nM (STING AQ) in PBS containing 0.005% Tween-20 and 0.1% BSA for one hour. Fluorescence at 495 nm and 520 nm was measured using an EnVision microplate reader to quantify FRET between Tb-labeled anti-His antibody and fluorescein-labeled probe. Background was defined as the signal obtained in the absence of STING protein, and background subtracted FRET ratios were normalized to the maximum signal obtained in the absence of test compound. These values were converted to a percent inhibition. Percent inhibition was determined for test compounds at 11 concentrations. The IC50, defined as the concentration of competing test compound needed to reduce specific binding of the probe by 50%, was calculated using the 4 parameter logistic equation to fit the data

[2] = biological target: T2, STING WT: His-TVMV-S-hSTING(155-341)-H232R (Homo sapiens, UniProt Q86WV6, H232R); assay: STING HTRF binding assay (time resolved FRET competition), STING WT; details: 20 nM His-tagged STING WT cytoplasmic domain, 200 nM fluorescein-labeled cGAMP analog probe, one hour; read-out: HTRF Binding Assays IC50 (μM) WT
T2 construct: STING WT: His-TVMV-S-hSTING(155-341)-H232R
T2 sequence (Q86WV6 with tags, fused parts or gaps H232R): as the sequence (Q86WV6 with tags, fused parts or gaps G230A/H232R/R293Q) above, with A99G, Q162R counted along it
Method: as §1

[3] = test system: THP1-Dual cells, IRF pathway (IRF3); assay: STING THP1 Reporter Assay, IRF pathway (secreted Lucia luciferase, QUANTI-Luc); format: cell-based; details: 10% human plasma, luciferase readout, 100% activation = 100 μM cGAMP, read-out: THP1 Reporter Assays EC50 (μM) IRF3
Source text: (§2) THP1-Dual™ cells were derived from the human THP-1 monocyte cell line by stable integration of two inducible reporter constructs. To this end, THP1-Dual™ cells allow the simultaneous study of the NF-κB pathway, by monitoring the activity of SEAP, and the IRF pathway by assessing the activity of a secreted luciferase (Lucia). Both reporter proteins are readily measurable in the cell culture supernatant when using QUANTI-Blue™, a SEAP detection reagent, and QUANTI-Luc™, a luciferase detection reagent.
(§3) THP1-Dual™ cells induce the activation of NF-κB in response to STING agonists. They also trigger the IRF pathway upon stimulation with STING agonists, such as cGAMP. Here, the THP-1-Dual cells were used to assess STING binders for function on the cellular level.
(§4) Serial dilutions of compounds in DMSO were added to low volume 384 well plates at 100 nl/well using an ECHO acoustic dispenser (Labcyte, model 550) to achieve final starting concentration of 100 μM in cell suspension. THP-1 Dual™ STING reporter cells (Invivogen, Dual cells cat #THPD-nfis) were added to the plates with compounds at 15,000 cells in 10 μL per well in RPMI media (Gibco, cat #11875) containing 10% human plasma in a low volume 384-well black wall clear bottom tissue culture plate (Corning, cat #3542) for SEAP assay and low volume solid white plate (Corning, cat #3826) for luciferase assay. One column of the plate was reserved for treatment with cGAMP at 100 μM for 100% activation calculation and one column for no treatment (DMSO only) for baseline activation. Plates were then incubated in 37 OC incubator at 5% CO2 for 20 hours.
(§5) In the SEAP assay, 5 μl of 2× QuantiBlue (Invivogen, cat #Rep-qb2) is added to 384 well black plates seeded with THP1 cells and incubated at 37° C. for 2 hours. Plates were read on the Envision (Perkin Elmer) at 620 nm wavelength (OD620). In the luciferase assay, 5 μl of Quantiluc (Invivogen, Rep-qlc2) is added to white 384 well plates seeded with THP1 cells and read at 5 minutes on the Envision (Perkin Elmer) using a luminescence protocol (RLU). For both cell lines, 100% activation was determined by value (RLU) of THP-1 Dual STING cells stimulated with 100 μM cGAMP (Invivogen, cat #TLRL-NACGA23-5).

[4] = test system: THP1-Dual cells, NF-κB pathway; assay: STING THP1 Reporter Assay, NF-κB pathway (SEAP, QUANTI-Blue); format: cell-based; details: 10% human plasma, SEAP readout (OD620), 100% activation = 100 μM cGAMP, read-out: THP1 Reporter Assays EC50 (μM) NFkB
Source text: as §2, §3, §4, §5

IC50 [1] [µM]	IC50 [2] [µM]	EC50 ([3]; Homo sapiens, THP1-Dual, 20 h) [µM]	EC50 ([4]; Homo sapiens, THP1-Dual, 20 h) [µM]	EC50 ([3]; 20 hours) [µM]	EC50 ([4]; 20 hours) [µM]	Compound
0.02	4.66	23.9	72.8	–	–	Nc1ncnc2c1ncn2[C@@H]1C[C@@H]2COP(=O)(O)O[C@H]3[C@@H](F)[C@H](n4cnc5c4ncn4ccnc54)O[C@@H]3COP(=O)(O)OC[C@H]21 [Example 16, (1R,6S,8R,9R,15R,17R,18R)-8-(6-amino-9H-purin-9-yl)-18-fluoro-3,12-dihydroxy-17-{3H-imidazo[2,1-f]purin-3-yl}-2,4,11,13,16-pentaoxa-3λ^5,12λ^5-diphosphatricyclo[13.3.0.0^6,9]octa-decane-3,12-dione]
10.1	52.5	> 100	> 100	–	–	NC(=O)c1cc([C@@H]2C[C@@H]3COP(=O)(S)O[C@H]4[C@H](F)[C@H](n5cnc6c(N)ncnc65)O[C@@H]4COP(=O)(S)OC[C@H]32)ccn1 (single isomer, unassigned) [Example 11]
0.02	1.41	–	–	18.4	23.5	NC(=O)c1cc([C@@H]2C[C@@H]3COP(=O)(S)O[C@H]4[C@@H](F)[C@H](n5cnc6c(N)ncnc65)O[C@@H]4COP(=O)(S)OC[C@H]32)ccn1 (single isomer, unassigned) [Example 9]
0.3	0.89	–	–	> 100	> 100	Nc1ncnc2c1ncn2[C@@H]1C[C@@H]2COP(=O)(S)O[C@@H]3[C@H](F)[C@@H](COP(=O)(S)OC[C@H]21)O[C@H]3n1cnc2c1ncn1ccnc21 (single isomer, unassigned) [Example 8-3]
0.002	0.01	–	–	0.39	1.21	Nc1ncnc2c1ncn2[C@@H]1O[C@@H]2COP(=O)(S)OC[C@@H]3[C@@H](COP(=O)(S)O[C@H]2[C@H]1F)C[C@H]3n1cnc2c(O)n3ccnc3nc21 (single isomer, unassigned) [Example 1-4]
0.2	6.97	–	–	> 100	> 100	Nc1ncnc2c1ncn2[C@@H]1O[C@@H]2COP(=O)(S)OC[C@@H]3[C@@H](COP(=O)(S)O[C@H]2[C@H]1F)C[C@H]3n1cnc2c(=O)n3cnnc3[nH]c21 (single isomer, unassigned) [Example 21-2]
0.63	19.4	–	–	> 100	> 100	Nc1ncnc2c1ncn2[C@@H]1C[C@@H]2COP(=O)(S)O[C@@H]3[C@H](F)[C@@H](COP(=O)(S)OC[C@H]21)O[C@H]3n1cnc2c(=O)n3cc[nH]c3nc21 (single isomer, unassigned) [Example 6-4]
0.04	0.9	–	–	31.3	54	Nc1ncnc2c1ncn2[C@@H]1O[C@@H]2COP(=O)(S)OC[C@@H]3[C@@H](COP(=O)(S)O[C@H]2[C@H]1F)C[C@H]3n1cnc2c(O)n3ccnc3nc21 (single isomer, unassigned) [Example 1-2]
11.8	> 100	–	–	> 100	> 100	Nc1ncnc2c1ncn2[C@@H]1C[C@@H]2COP(=O)(S)O[C@H]3[C@@H](O)[C@H](n4cnc5c(=O)n6cc[nH]c6nc54)O[C@@H]3COP(=O)(S)OC[C@H]21 (single isomer, unassigned) [Example 5-2]
35.7	> 100	–	–	> 100	> 100	O=P1(S)OC[C@@H]2[C@@H](COP(=O)(S)O[C@H]3[C@@H](F)[C@H](n4cnc5c4ncn4ccnc54)O[C@@H]3CO1)C[C@H]2n1cnc2c(Cl)ncnc21 (single isomer, unassigned) [Example 18-2]
0.03	1.49	–	–	26.6	42.6	Nc1ncnc2c1ncn2[C@@H]1O[C@@H]2COP(=O)(S)OC[C@@H]3[C@@H](COP(=O)(S)O[C@H]2[C@H]1F)C[C@H]3n1cnc2c1ncn1ccnc21 (single isomer, unassigned) [Example 3-2]
> 100	> 100	–	–	> 100	> 100	NC(=O)c1cc([C@@H]2O[C@@H]3COP(=O)(S)OC[C@@H]4[C@@H](COP(=O)(S)O[C@@H]2[C@@H]3O)C[C@H]4n2cnc3c(N)ncnc32)ccn1 (single isomer, unassigned) [Example 20-2]
35.7	> 100	–	–	> 100	> 100	NC(=O)c1cc([C@@H]2O[C@@H]3COP(=O)(S)OC[C@@H]4[C@@H](COP(=O)(S)O[C@@H]2[C@@H]3O)C[C@H]4n2cnc3c(N)ncnc32)ccn1 (single isomer, unassigned) [Example 20-4]
0.35	31.2	> 100	> 100	–	–	NC(=O)c1cc([C@@H]2C[C@@H]3COP(=O)(O)O[C@H]4[C@@H](F)[C@H](n5cnc6c(N)ncnc65)O[C@@H]4COP(=O)(O)OC[C@H]32)ccn1 [Example 12, 4-[(1R,6S,8R,9S,15R,17R,18R)-17-(6-amino-9H-purin-9-yl)-18-fluoro-3,12-dihydroxy-3,12-dioxo-2,4,11,13,16-pentaoxa-3λ^5,12λ^5-diphosphatricyclo[13.3.0.0^6,9]octadecan-8-yl]pyridine-2-carboxamide]
0.18	6.31	–	–	> 100	> 100	Nc1ncnc2c1ncn2[C@@H]1C[C@@H]2COP(=O)(S)O[C@@H]3[C@H](F)[C@@H](COP(=O)(S)OC[C@H]21)O[C@H]3n1cnc2c(=O)n3cc[nH]c3nc21 (single isomer, unassigned) [Example 6-1]
> 100	> 100	> 100	> 100	–	–	NC(=O)c1cc([C@@H]2C[C@@H]3COP(=O)(S)OC[C@@H]4[C@@H](COP(=O)(S)OC[C@H]32)C[C@H]4n2cnc3c(N)ncnc32)ccn1 (single isomer, unassigned) [Example 15-1]
0.51	3.43	–	–	> 100	> 100	Nc1ncnc2c1ncn2[C@@H]1C[C@@H]2COP(=O)(S)O[C@@H]3[C@H](F)[C@@H](COP(=O)(S)OC[C@H]21)O[C@H]3n1cnc2c1ncn1ccnc21 (single isomer, unassigned) [Example 8-2]
3.55	> 100	> 100	> 100	–	–	Nc1ncnc2c1ncn2[C@@H]1C[C@@H]2COP(=O)(S)O[C@H]3[C@@H](F)[C@H](n4cnc5c4ncn4ccnc54)O[C@@H]3COP(=O)(S)OC[C@H]21 (single isomer, unassigned) [Example 17-1]
0.11	34.5	–	–	> 100	> 100	Nc1ncnc2c1ncn2[C@@H]1C[C@@H]2COP(=O)(S)O[C@H]3[C@@H](O)[C@H](n4cnc5c(=O)n6cc[nH]c6nc54)O[C@@H]3COP(=O)(S)OC[C@H]21 (single isomer, unassigned) [Example 5-4]

Reference: US11339185B2, “Cyclic dinucleotides as anticancer agents” (Bristol-Myers Squibb Company, priority 2018, dated 2022)
